Activity calls are given as the source filed them.
Key:
BJ [1] = assay: BJ-TERT-LT-ST fibroblast viability loss – cell-based, RAS-independent, luminescence, dose response (AID 1935); type: functional; conditions: Homo sapiens;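 further: BJ fibroblasts immortalized with TERT plus LT and ST oncogenes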
[2] = viability of uninfected HEp-2 cells – cell-based, HTS, cytotoxicity control for RSV inhibitor project, dose response (AID 2410); type: functional; conditions: human respiratory syncytial virus
[3] = DRD fibroblast viability loss – cell-based, non-viral oncogenic, luminescence, dose response (AID 1934); type: functional; conditions: Homo sapiens
BJ [4] = assay: cells; type: functional, cell-based; conditions: Homo sapiens
BJ [5] = assay: BJ-TERT fibroblast viability loss – cell-based, RAS-independent, luminescence, dose response (AID 1933); type: functional; conditions: Homo sapiens
BJ [6] = assay: growth inhibition of engineered Ras-driven BJ cells – cell-based, alamar blue fluorescence, cherrypicked samples, dose response (AID 2631); type: functional; conditions: Homo sapiens;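 further: confirmatory dose-response assay in RAS-dependent BJ fibroblasts engineered with TERT, LT and ST, with cytotoxicity read by fluorescence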
Caspase-3 [7] = target: T1, Caspase-3 (Homo sapiens, UniProt P42574); assay: SAR Analysis of small molecule inhibitors of Sentrin-specific proteases (SENPs) using a Caspase-3 Selectivity assay. [Related pubchem assays (depositor defined):AID2540, AID2599, AID434973, AID489001]; type: functional
T1 sequence (P42574 whole entry): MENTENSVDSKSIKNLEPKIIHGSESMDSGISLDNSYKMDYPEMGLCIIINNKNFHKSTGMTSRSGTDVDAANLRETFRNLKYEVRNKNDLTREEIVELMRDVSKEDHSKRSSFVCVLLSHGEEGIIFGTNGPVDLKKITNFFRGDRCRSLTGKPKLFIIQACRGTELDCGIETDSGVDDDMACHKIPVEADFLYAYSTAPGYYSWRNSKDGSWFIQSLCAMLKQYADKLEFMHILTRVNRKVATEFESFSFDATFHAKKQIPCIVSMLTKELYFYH

[8] = target: T2, Sentrin-specific protease 6 (Homo sapiens, UniProt Q9GZR1); assay: SAR Analysis of small molecule inhibitors of Sentrin-specific protease 6 (SENP6) using a Luminescent assay. [Related pubchem assays (depositor defined):AID2582, AID2599]; type: functional
T2 sequence (Q9GZR1 whole entry): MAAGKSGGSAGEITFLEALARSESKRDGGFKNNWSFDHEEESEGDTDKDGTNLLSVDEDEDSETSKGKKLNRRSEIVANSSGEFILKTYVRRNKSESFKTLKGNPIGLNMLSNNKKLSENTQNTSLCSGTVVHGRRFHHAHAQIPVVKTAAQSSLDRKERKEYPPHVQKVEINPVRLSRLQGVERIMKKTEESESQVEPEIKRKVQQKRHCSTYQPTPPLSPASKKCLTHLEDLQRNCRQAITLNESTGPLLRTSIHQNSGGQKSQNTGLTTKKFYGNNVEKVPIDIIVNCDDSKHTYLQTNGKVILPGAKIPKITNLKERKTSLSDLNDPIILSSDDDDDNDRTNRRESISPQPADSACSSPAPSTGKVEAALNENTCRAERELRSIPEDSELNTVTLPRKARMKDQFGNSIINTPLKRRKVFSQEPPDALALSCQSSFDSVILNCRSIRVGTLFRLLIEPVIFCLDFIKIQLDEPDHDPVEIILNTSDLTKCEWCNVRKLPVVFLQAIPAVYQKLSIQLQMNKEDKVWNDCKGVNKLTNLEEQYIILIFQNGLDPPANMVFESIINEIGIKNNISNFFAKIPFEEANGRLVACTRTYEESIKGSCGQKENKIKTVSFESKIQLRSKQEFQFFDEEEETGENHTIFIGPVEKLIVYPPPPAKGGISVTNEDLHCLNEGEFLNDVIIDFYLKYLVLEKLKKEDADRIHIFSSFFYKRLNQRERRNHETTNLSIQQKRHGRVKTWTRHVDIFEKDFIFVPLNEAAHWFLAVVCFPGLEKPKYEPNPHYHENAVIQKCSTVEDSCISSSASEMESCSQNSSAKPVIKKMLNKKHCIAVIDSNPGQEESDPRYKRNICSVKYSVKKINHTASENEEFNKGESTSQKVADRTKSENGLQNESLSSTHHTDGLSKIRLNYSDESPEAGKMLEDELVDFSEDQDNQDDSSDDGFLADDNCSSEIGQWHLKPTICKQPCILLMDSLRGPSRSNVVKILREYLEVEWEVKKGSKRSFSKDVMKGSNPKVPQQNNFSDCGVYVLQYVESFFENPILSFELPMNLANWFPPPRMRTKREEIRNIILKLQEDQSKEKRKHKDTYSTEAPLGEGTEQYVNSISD

[9] = target: T3, Sentrin-specific protease 8 (Homo sapiens, UniProt Q96LD8); assay: inhibition of human SENP8 cleavage activity – biochemical, luminescence, SAR follow-up (AID 504501); type: functional
T3 sequence (Q96LD8 whole entry): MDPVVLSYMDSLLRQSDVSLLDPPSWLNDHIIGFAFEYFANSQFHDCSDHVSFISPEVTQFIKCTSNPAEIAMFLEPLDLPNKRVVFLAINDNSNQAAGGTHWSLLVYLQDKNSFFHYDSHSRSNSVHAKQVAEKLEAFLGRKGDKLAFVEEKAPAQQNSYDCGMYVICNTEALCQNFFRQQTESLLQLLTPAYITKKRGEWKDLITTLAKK

[10] = target: T4, Sentrin-specific protease 7 (Homo sapiens, UniProt Q9BQF6); assay: inhibition of human SENP7 cleavage activity – biochemical, luminescence, SAR follow-up (AID 504497); type: functional
T4 sequence (Q9BQF6 whole entry): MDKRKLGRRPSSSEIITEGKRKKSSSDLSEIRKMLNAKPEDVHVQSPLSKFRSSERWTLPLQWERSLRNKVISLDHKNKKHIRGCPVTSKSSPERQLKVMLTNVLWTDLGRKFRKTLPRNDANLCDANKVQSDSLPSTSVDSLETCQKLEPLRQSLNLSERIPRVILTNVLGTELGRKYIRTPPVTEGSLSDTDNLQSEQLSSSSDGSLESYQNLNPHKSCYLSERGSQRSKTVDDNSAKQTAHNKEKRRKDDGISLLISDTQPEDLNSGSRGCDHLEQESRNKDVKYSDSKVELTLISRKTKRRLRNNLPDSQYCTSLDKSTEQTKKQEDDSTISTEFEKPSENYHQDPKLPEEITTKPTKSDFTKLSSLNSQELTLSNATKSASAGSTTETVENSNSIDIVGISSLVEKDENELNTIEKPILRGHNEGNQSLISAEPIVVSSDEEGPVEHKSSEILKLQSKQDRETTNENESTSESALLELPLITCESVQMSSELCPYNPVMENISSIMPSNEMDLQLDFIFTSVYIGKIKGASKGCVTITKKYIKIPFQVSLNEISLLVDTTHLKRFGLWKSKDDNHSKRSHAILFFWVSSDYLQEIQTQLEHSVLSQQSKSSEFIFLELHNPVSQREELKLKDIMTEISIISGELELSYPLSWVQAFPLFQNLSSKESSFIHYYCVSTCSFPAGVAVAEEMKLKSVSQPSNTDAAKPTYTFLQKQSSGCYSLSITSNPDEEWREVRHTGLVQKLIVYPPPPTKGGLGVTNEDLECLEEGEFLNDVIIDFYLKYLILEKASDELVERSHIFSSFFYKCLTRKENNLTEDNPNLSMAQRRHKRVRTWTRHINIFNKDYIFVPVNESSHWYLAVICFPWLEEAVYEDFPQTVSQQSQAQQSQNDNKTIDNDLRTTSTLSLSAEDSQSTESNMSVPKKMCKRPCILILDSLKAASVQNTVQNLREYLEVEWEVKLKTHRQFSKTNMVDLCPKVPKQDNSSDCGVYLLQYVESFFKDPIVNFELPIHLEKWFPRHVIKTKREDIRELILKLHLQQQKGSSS

[11] = target: T4, Sentrin-specific protease 7; type: functional
[12] = target: T3, Sentrin-specific protease 8; type: functional
[13] = target: T2, Sentrin-specific protease 6; type: functional
Caspase-3 [14] = target: T1, Caspase-3; type: functional
Protein RecA = target: T5, Protein RecA (Mycobacterium tuberculosis, UniProt P9WHJ3); assay: Fluorescence Cell-Free Homogeneous Dose Retest to Identify Inhibitors of RecA-Intein Splicing Activity. [Related pubchem assays (depositor defined):AID2097, AID2223, AID489010, AID492950]; type: functional
T5 sequence (P9WHJ3 whole entry): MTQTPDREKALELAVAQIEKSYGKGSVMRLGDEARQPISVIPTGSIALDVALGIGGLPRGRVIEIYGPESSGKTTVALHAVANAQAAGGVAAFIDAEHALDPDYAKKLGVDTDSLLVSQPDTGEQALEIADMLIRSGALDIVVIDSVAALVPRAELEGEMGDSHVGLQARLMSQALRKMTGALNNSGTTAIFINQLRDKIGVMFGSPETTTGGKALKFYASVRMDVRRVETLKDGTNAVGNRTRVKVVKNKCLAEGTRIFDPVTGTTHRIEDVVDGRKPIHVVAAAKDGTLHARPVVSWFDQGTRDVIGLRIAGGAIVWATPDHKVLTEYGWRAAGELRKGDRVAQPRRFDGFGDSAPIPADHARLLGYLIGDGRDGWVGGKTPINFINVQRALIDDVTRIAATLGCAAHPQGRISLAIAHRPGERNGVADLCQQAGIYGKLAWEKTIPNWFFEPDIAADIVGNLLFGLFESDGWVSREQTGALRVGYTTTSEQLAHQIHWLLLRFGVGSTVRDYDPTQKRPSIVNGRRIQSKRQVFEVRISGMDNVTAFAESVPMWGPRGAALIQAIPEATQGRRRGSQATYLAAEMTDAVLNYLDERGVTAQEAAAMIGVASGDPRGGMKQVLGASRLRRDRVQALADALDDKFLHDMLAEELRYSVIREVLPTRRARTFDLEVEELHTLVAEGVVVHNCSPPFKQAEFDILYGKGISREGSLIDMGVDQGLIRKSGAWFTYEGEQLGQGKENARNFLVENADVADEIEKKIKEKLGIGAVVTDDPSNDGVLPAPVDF

[15] = target: T6, Replicative DNA helicase DnaB (Mycobacterium tuberculosis, UniProt P9WMR3); assay: DnaB intein splicing inhibitors, dose response, biochemical, cell-free fluorescence (AID 449749); type: functional
T6 sequence (P9WMR3 whole entry): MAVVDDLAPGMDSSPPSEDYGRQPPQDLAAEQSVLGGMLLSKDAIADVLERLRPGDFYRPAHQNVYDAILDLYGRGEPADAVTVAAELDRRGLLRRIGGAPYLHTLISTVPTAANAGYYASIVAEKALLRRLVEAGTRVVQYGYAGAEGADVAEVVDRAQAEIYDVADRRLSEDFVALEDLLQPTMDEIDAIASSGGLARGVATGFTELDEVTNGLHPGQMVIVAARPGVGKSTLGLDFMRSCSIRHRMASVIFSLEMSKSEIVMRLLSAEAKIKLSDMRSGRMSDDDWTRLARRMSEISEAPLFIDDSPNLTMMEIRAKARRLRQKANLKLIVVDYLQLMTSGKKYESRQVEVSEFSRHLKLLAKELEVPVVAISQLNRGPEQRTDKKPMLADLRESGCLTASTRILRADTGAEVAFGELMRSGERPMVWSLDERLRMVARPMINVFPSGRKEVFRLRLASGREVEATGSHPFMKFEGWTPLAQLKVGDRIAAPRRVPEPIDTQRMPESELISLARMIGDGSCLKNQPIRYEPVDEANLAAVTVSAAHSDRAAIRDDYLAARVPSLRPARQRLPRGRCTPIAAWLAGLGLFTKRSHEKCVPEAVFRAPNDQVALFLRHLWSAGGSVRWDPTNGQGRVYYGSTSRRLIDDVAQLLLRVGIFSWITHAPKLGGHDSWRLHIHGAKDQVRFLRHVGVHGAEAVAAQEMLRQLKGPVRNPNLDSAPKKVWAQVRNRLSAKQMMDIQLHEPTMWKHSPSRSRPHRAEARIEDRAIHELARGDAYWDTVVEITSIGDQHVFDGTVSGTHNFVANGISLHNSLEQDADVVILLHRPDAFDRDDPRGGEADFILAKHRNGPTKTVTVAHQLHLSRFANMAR

[16] = viability of PTEN-deleted HCT116 cells – cell-based, HCT116 PTEN knockout, dose response (AID 1047); type: functional;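 further: HCT116 colon tumor cells with PTEN knocked out; cells exposed to compound for 60 hours before readout; potency for loss of cell viability measured by luminescence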
[17] = viability of HCT116 lacking mutant beta-catenin – cell-based, human colon tumor, dose response (AID 1045); type: functional;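 further: HCT116 colon tumor cells with beta catenin knocked out; cells exposed to compound for 60 hours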

Structure (SMILES)	EC50 (BJ [1])	EC50 [3]	EC50 (BJ [5])	EC50 (BJ [6])	IC50 (Caspase-3 [7])	IC50 [8]	IC50 [9]	IC50 [10]	other results
COc1cc([C@H]2c3[nH]c4ccccc4c3C[C@H]3C(=O)N4[C@@H](c5cc(OC)c(OC)c(OC)c5)c5[nH]c6ccccc6c5C[C@H]4C(=O)N23)cc(OC)c1OC	14.3 µM (inconclusive)	5.02 µM (active)	3.48 µM (active)	> 133 µM (inactive)	–	–	–	–	CC50 [2]: 19.1 µM (active); EC50 (BJ [4]): > 150 µM (inconclusive)
O=C(Nc1nc2ccc(NC(=O)c3n[nH]c4c3CCc3ccccc3-4)cc2s1)c1ccccc1	–	–	–	–	> 99 µM (inactive)	> 99 µM (inactive)	> 99 µM (inactive)	> 99 µM (inactive)	–
CCc1ccc2oc(-c3ccc(NC(C)=O)cc3)nc2c1	–	–	–	–	7.01 µM (active)	5.12 µM (active)	5.46 µM (active)	2.09 µM (active)	IC50 [11]: 2.89 µM (active); IC50 [12]: 13.2 µM (active); CC50 [2]: 22.2 µM (active); IC50 [13]: 8.05 µM (active); IC50 (Caspase-3 [14]): 12.4 µM (active)
Cc1ccc(C2=NN(C(=O)CCl)C(c3ccco3)C2)o1 (stereo not given)	11.1 µM (inconclusive)	5.27 µM (active)	3.33 µM (inconclusive)	3.42 µM (active)	–	–	–	–	EC50 (Protein RecA): 5.58 µM (active); AC50 [15]: 30.3 µM (active)
O=C(/C=C/c1ccc(OC2CSC2)cc1)c1ccc(Cl)cc1	–	–	–	–	> 99 µM (inactive)	> 99 µM (inactive)	> 99 µM (inactive)	> 99 µM (inactive)	–
CCCCc1c(C)c(C#N)c2nc3ccccc3n2c1Cl	1.75 µM (inconclusive)	2.76 µM (active)	2.22 µM (active)	0.57 µM (active)	–	–	–	–	EC50 [16]: 1.88 µM (active); EC50 [17]: 1.52 µM (active); EC50 (BJ [4]): 2.85 µM (active)
Fc1cc(C(F)(F)F)ccc1-c1nc(/C=C/c2ccccc2)no1	–	–	–	–	> 99 µM (inactive)	> 99 µM (inactive)	> 99 µM (inactive)	> 99 µM (inactive)	–

— ChEMBL document CHEMBL1201862, “PubChem BioAssay data set” (2004)
